Source: US6608004B2, “Substituted 2-aryl-1,2,4-triazine-3,5-di(thi)ones” (priority 1999, dated 2003)
Read-outs that look alike come from different tables or passages of the source.

How the values were obtained:
[1] = logP determination by HPLC, reversed-phase column (C 18), EEC Directive 79/831 Annex V.A8
From the text: (a) Mobile phases for the determination in the acidic range: 0.1% aqueous phosphoric acid, acetonitrile; linear gradient from 10% acetonitrile to 90% acetonitrile—the corresponding measurement results are labelled in Table 1 with ^a).
(b) Mobile phases for the determination in the neutral range: 0.01 molar aqueous phosphate buffer solution, acetonitrile; linear gradient from 10% acetonitrile to 90% acetonitrile—the corresponding measurement results are labelled in Table 1 with ^b).

[2] = system: weeds; assay: Pre-Emergence Test (Example A), activity against weeds; format: in vivo; conditions: soil sprayed about 24 hours after sowing, rated after three weeks
From the text: (§1) Solvent: 5 parts by weight of acetone
(§2) Emulsifier: 1 part by weight of alkylaryl polyglycol ether
(§3) Seeds of the test plants are sown in normal soil.
0%=no effect (like untreated control)

[3] = system: crop plants, such as, for example, barley, wheat, rapeseed, soya and sugar beet; assay: Pre-Emergence Test (Example A), tolerance by crop plants; format: in vivo
From the text: as §1, §2, §3

[4] = system: weeds; assay: Post-Emergence Test (Example B), activity against weeds; format: in vivo; conditions: test plants of a height of 5-15 cm sprayed, rated after three weeks
From the text: as §1, §2
(§4) After three weeks, the degree of damage to the plants is rated in % damage in comparison to the development of the untreated control.

[5] = system: crop plants, such as, for example, barley and wheat; assay: Post-Emergence Test (Example B), tolerance by crop plants; conditions: in vivo
From the text: as §1, §2, §4

[6] = a) acidic range: 0.1% aqueous phosphoric acid, acetonitrile gradient, HPLC C 18, 43° C.

Structure (SMILES): CCCCC(CC)C(=O)N(c1cc(-n2ncc(=O)n(C)c2=O)c(F)cc1C#N)S(=O)(=O)CC (racemic) [Example 7]
- logP a) [1]: m.p.: 140 °C logP = 3.53^a)
- activity against weeds (degree of damage) [2]: very strong activity
- tolerance by crop plants ([3]; in vivo): essentially being tolerated well
- activity against weeds (degree of damage) [4]: very strong activity
- tolerance by crop plants [5]: essentially being tolerated well

Structure (SMILES): CCC(Oc1ccccc1)C(=O)N(c1cc(-n2ncc(=O)n(C)c2=O)c(F)cc1C#N)S(=O)(=O)CC (racemic) [Example 33]
- logP a) [1]: m.p.: 128 °C logP = 3.12^a)
- activity against weeds (degree of damage) [2]: very strong activity
- tolerance by crop plants ([3]; in vivo): essentially being tolerated well
- activity against weeds (degree of damage) [4]: very strong activity
- tolerance by crop plants [5]: essentially being tolerated well

Structure (SMILES): CCS(=O)(=O)N(C(=O)C(C)c1c(Cl)cccc1Cl)c1cc(-n2ncc(=O)n(C)c2=O)c(F)cc1C#N (racemic) [Example 34]
- logP a) [1, 6]: m.p.: 159 °C logP = 3.07^a)

Structure (SMILES): CCS(=O)(=O)N(C(=O)C1CCc2ccccc2O1)c1cc(-n2ncc(=O)n(C)c2=O)c(F)cc1C#N (racemic) [Example 38]
- logP a) [1]: m.p.: 115 °C logP = 2.93^a)

Structure (SMILES): CCS(=O)(=O)N(C(=O)c1ccc(OC)cc1)c1cc(-n2ncc(=O)n(C)c2=O)c(F)cc1C#N [Example 11]
- logP a) [1]: m.p.: 94 °C logP = 2.77^a)
- activity against weeds (degree of damage) [2]: very strong activity
- tolerance by crop plants ([3]; pre-emergence, barley, wheat, rapeseed, soya and sugar beet, rated after three weeks): essentially being tolerated well

Structure (SMILES): C=CC(=O)N(c1cc(-n2ncc(=O)n(CCF)c2=O)c(F)cc1C#N)S(C)(=O)=O [Example 62]
- logP a) [1, 6]: m.p.: 142 °C logP = 1.93^a)

Structure (SMILES): C/C=C/C(=O)N(c1cc(-n2ncc(=O)n(CCF)c2=O)c(F)cc1C#N)S(C)(=O)=O [Example 63]
- logP a) [1, 6]: m.p.: 85 °C logP = 2.12^a)

Structure (SMILES): C=CC(=O)N(c1cc(-n2ncc(=O)n(CCF)c2=O)c(F)cc1C#N)S(=O)(=O)CCC [Example 64]
- logP a) [1, 6]: m.p.: 142 °C logP = 2.46^a)

Structure (SMILES): C=CC(=O)N(c1cc(-n2ncc(=O)n(CCF)c2=O)c(F)cc1C#N)S(=O)(=O)CC [Example 65]
- logP a) [1, 6]: m.p.: 83 °C logP = 2.14^a)

Structure (SMILES): CCS(=O)(=O)N(C(=O)c1cn(C)nc1C(F)(F)F)c1cc(-n2ncc(=O)n(C)c2=O)c(F)cc1C#N [Example 67]
- logP a) [1]: m.p.: 199 °C logP = 2.54^a)

Structure (SMILES): CCS(=O)(=O)N(C(=O)c1snnc1C)c1cc(-n2ncc(=O)n(C)c2=O)c(F)cc1C#N [Example 68]
- logP a) [1]: m.p.: 189 °C logP = 1.73^a)

Structure (SMILES): CCS(=O)(=O)N(C(=O)N1CCCC1)c1cc(-n2ncc(=O)n(C)c2=O)c(F)cc1C#N [Example 69]
- logP a) [1]: m.p.: 192 °C logP = 2.05^a)

Structure (SMILES): CCS(=O)(=O)N(C(=O)N(C(C)C)C(C)C)c1cc(-n2ncc(=O)n(C)c2=O)c(F)cc1C#N [Example 71]
- logP a) [1]: m.p.: 188 °C logP = 2.92^a)

Structure (SMILES): CCS(=O)(=O)N(C(=O)Oc1ccc(F)cc1)c1cc(-n2ncc(=O)n(C)c2=O)c(F)cc1C#N [Example 74]
- logP a) [1]: m.p.: 202 °C logP = 2.85^a)

Structure (SMILES): CCS(=O)(=O)N(C(=O)CCCc1ccc(OC)cc1)c1cc(-n2ncc(=O)n(C)c2=O)c(F)cc1C#N [Example 76]
- logP a) [1]: logP = 3.03^a)

Structure (SMILES): CCS(=O)(=O)N(C(=O)/C=C/c1ccc2c(c1)OCO2)c1cc(-n2ncc(=O)n(C)c2=O)c(F)cc1C#N [Example 77]
- logP a) [1, 6]: m.p.: 141 °C logP = 2.72^a)

Structure (SMILES): CCS(=O)(=O)N(C(=O)CC(c1ccccc1)c1ccccc1)c1cc(-n2ncc(=O)n(C)c2=O)c(F)cc1C#N [Example 78]
- logP a) [1]: m.p.: 183 °C logP = 3.48^a)

Structure (SMILES): CCS(=O)(=O)N(C(=O)Cc1ccccc1OC)c1cc(-n2ncc(=O)n(C)c2=O)c(F)cc1C#N [Example 80]
- logP a) [1]: m.p.: 140 °C logP = 2.70^a)

Structure (SMILES): CCS(=O)(=O)N(C(=O)Cc1cc(OC)ccc1OC)c1cc(-n2ncc(=O)n(C)c2=O)c(F)cc1C#N [Example 81]
- logP a) [1]: m.p.: 192 °C logP = 2.66^a)

Structure (SMILES): CCS(=O)(=O)N(C(=O)Cc1cccc(OC)c1)c1cc(-n2ncc(=O)n(C)c2=O)c(F)cc1C#N [Example 82]
- logP a) [1]: m.p.: 158 °C logP = 2.63^a)
